Measurements taken from patent US20240246940A1, “HETEROARYL DERIVATIVE COMPOUND AND USE THEREOF” (VORONOI INC., priority 2021, published 2024).

Key:
Format in all cases: cell-based
[1] = tested on: SK-BR-3 cells (HER2 overexpressing cell line); experiment: SK-BR-3 cell proliferation inhibitory activity (CellTiter-Glo, 120 hours); details: Homo sapiens
Procedure, shortened: (§1)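 Luminescent viability read-out, growth % vs control → GI50, n=3. Seeding: SK-BR-3/BT-474 5000 cells, 48 h pre-plating; N-87 5000, 24 h; HaCaT 3000, 24 h. Dose ranges: 0.2 nM–10 μM (SK-BR-3, BT-474; 3-fold), […]–5 μM (N-87; 5-fold), 0.8 nM–45 μM (HaCaT; 3-fold).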

[2] = tested on: N-87 cells (HER2 overexpressing cell line); experiment: N-87 cell proliferation inhibitory activity (CellTiter-Glo, 72 hours)
Description: To evaluate the cell proliferation inhibitory activity of the compound according to the present invention on HER2 and EGFR kinases, the following method was performed using HER2 overexpressing cell lines (SK-BR-3, BT-474, and N-87) and EGFR expressing cell line (HaCaT).
McCOY'S 5A supplemented with 10% FBS was used for SK-BR-3 cells, RPMI-1640 medium supplemented with 20% FBS was used for BT-474 cancer cells, and RPMI-1640 medium supplemented with 10% FBS was used for N-87 cancer cells. DMEM supplemented with 10% FBS was used for HaCaT cells.
For SK-BR-3 cells, 5000 cells were aliquoted into each well of a white clear bottom 96 well plate (Corning) 48 hours before treatment with the compounds of Examples. For BT-474 cells, 5000 cells were aliquoted into each well of a white clear bottom 96 well plate (Corning) 48 hours before treatment with the compounds of Examples. For N-87 cells, 5000 cells were aliquoted into each well of a white clear bottom 96 well plate (Corning) 24 hours before treatment with the compounds of Examples. For HaCaT cells, 3000 cells were aliquoted into each well of a white clear bottom 96 well plate (Corning) 24 hours before treatment with the compounds of Examples. For SK-BR-3 cells and BT-474 cells, the compounds of Examples were diluted in dimethyl sulfoxide (three-fold dilution, a total of 11 concentrations) and injected each in an amount of 1 μl to a final concentration of 0.2 nM to 10 μM. For N-87 cells, the compounds of Examples were diluted in dimethyl sulfoxide (five-fold dilution, a total of 11 concentrations) and injected each in an amount of 0.5 μl to a final concentration of […] to 5 μM. For HaCaT cells, the compounds of Examples were diluted in dimethyl sulfoxide (three-fold dilution, a total of 11 concentrations) and injected each in an amount of 0.5 μl to a final concentration of 0.8 nM to 45 μM. For the measurement of living cells, the cells were stored at room temperature for 10 minutes using CellTiter-Glo cell viability reagent (Promega) after a certain period of time (SK-BR-3: 120 hours, BT-474: 120 hours, N-87: 72 hours, and HaCaT: 72 hours) post treatment with the compounds of Examples, and the luminescence intensity thereof was measured using a reader (SynergyNeo, Biotek). Each test was repeated three times.
The result values were calculated as a cell growth rate (%) compared to those of the control group. A graph was created using the GraphPad Prism version 5.0 program, and GI50 values were calculated.

[3] = tested on: HaCaT cells (EGFR expressing cell line); experiment: HaCaT cell proliferation inhibitory activity (CellTiter-Glo, 72 hours); details: Homo sapiens
Procedure, shortened: as §1

[4] = tested on: BT-474 cells (HER2 overexpressing cell line); experiment: BT-474 cell proliferation inhibitory activity (CellTiter-Glo, 120 hours); details: Homo sapiens
Procedure, shortened: as §1

Structure (SMILES) | GI50 [1] [nM] | GI50 [4] [nM] | GI50 [2] [nM] | GI50 [3] [nM]
C=CC(=O)N1CCC(Oc2cc3c(Nc4cc(-c5ccc(F)c(NC(=O)C6CC6)c5F)ccc4OC)ncnc3cc2OC)CC1 [Example 2, N-(3'-((6-((1-acryloylpiperidin-4-yl)oxy)-7-methoxy-quinazolin-4-yl)amino)-2,4-difluoro-4′-methoxy-[1,11 biphenyl]-3-yl)cyclopropan-carboxamide] | – | ≤ 150 | ≤ 150 | > 1000
C=CC(=O)N1CCC(Oc2cc3c(Nc4cc(-c5cccc(N6CCC6)c5)ccc4OC)ncnc3cc2OC)CC1 [Example 225, 1-(4-((4-((3′-(azetidin-1-yl)-4-methoxy-[1,1′-biphenyl]-3-yl)amino)-7-methoxy-quinazolin-6-yl)oxy)piperidin-1-yl)prop-2-en-1-one] | – | 150 to 1000 | ≤ 150 | > 1000
C=CC(=O)N1CCC(Nc2cc3c(Nc4cc(-c5ccc(F)cc5F)ccc4OC)ncnc3cc2OCC)CC1 [Example 301, 1-(4-((4-((2′,4′-difluoro-4-methoxy-[1,1′-biphenyl]-3-yl)amino)-7-ethoxyquinazolin-6-yl)amino)piperidin-1-yl)prop-2-en-1-one] | – | ≤ 150 | ≤ 150 | ≤ 150
C=CC(=O)N1CCC(Oc2cc3c(Nc4cc(-c5ccc(F)c(NC(C)=O)c5)ccc4OC)ncnc3cc2OC)CC1 [Example 226, N-(3′-((6-((1-acryloyl-piperidin-4-yl)oxy)-7-methoxy-quinazolin-4-yl)mino)-4-fluoro-4′-methoxy-[1,1'-biphenyl]-3-yl)acetamide] | – | ≤ 150 | ≤ 150 | > 1000
C=CC(=O)N1CC[C@@H](Oc2cc3c(Nc4cc(-c5ccc(F)cc5F)ccc4OC)ncnc3cc2OC)[C@@H](F)C1 [Example 189, 1-((3S,4R)-4-((4-((2′,4′-difluoro-4-methoxy-[1,1′-biphenyl]-3-yl)amino)-7-methoxy-quinazolin-6-yl)oxy)-3-fluoropiperidin-1-yl)prop-2-en-1-one] | – | ≤ 150 | ≤ 150 | ≤ 150
C=CC(=O)N1CCC(Oc2cc3c(Nc4cc(-c5ccc(F)c(N)c5)ccc4OC)ncnc3cc2OC)CC1 [Example 146, 1-(4-((4-((3′-amino-4′-fluoro-4-methoxy-[1,1′-biphenyl]-3-yl)amino)-7-methoxy-quinazolin-6-yl)oxy)piperidin-1-yl)prop-2-en-1-one] | ≤ 150 | – | ≤ 150 | > 1000
C=CC(=O)N1[C@@H]2CC[C@H]1C[C@@H](Oc1cc3c(Nc4cc(-c5ccco5)ccc4OC)ncnc3cc1OC)C2 [Example 167, 1-((1R,3r,5S)-3-((4-((5-(furan-2-yl)-2-methoxyphenyl)amino)-7-methoxy-quinazolin-6-yl)oxy)-8-azabicyclo [3.2.1]octan-8-yl)prop-2-en-1-one] | – | ≤ 150 | – | ≤ 150
C=CC(=O)N1CCC(Oc2cc3c(Nc4cc(-c5ccc(F)c(OCC(F)(F)F)c5)ccc4OC)ncnc3cc2OC)CC1 [Example 214, 1-(4-((4-((4′-fluoro-4-methoxy-3′-(2,2,2-trifluoroethoxy)-[1,1′-biphenyl]-3-yl)amino)-7-methoxy-quinazolin-6-yl)oxy)piperidin-1-yl)prop-2-en-1-one] | – | ≤ 150 | – | > 1000

Continued, in another order:

GI50 [1] [nM] | GI50 [4] [nM] | Structure (SMILES) | GI50 [2] [nM] | GI50 [3] [nM]
≤ 150 | – | C=CC(=O)N1CCC(Oc2cc3c(Nc4cc(-c5ccc(F)cc5F)ccc4OC)ncnc3cc2O[C@@H]2CCOC2)CC1 [Example 281, (R)-1-(4-((4-((2′,4′-difluoro-4-methoxy-[1,1′-biphenyl]-3-yl)amino)-7-((tetrahydrofuran-3-yl)oxy)quinazolin-6-yl)oxy)piperidin-1-yl)prop-2-en-1-one] | ≤ 150 | ≤ 150
– | ≤ 150 | C=CC(=O)N1CCC(Oc2cc3c(Nc4cc(-c5ccc(F)c(O)c5)ccc4OC)ncnc3cc2OC)CC1 [Example 168, 1-(4-((4-((4′-fluoro-3′-hydroxy-4-methoxy-[1,1′-biphenyl]-3-yl)amino)-7-methoxy-quinazolin-6-yl)oxy)piperidin-1-yl)prop-2-en-1-one] | ≤ 150 | 150 to 1000
– | ≤ 150 | C=CC(=O)N1CCC(Oc2cc3c(Nc4cc(-c5ccc(F)c(N(C)C)c5F)ccc4OC)ncnc3cc2OC)CC1 [Example 155, 1-(4-((4-((3′-(dimethylamino)-2′,4′-difluoro-4-methoxy-[1,1′-biphenyl]-3-yl)amino)-7-methoxy-quinazolin-6-yl)oxy)piperidin-1-yl)prop-2-en-1-one] | ≤ 150 | ≤ 150
– | ≤ 150 | C=CC(=O)N1CCC(Oc2cc3c(Nc4cc(-c5ccc(F)c(NC(C)=O)c5F)ccc4OC)ncnc3cc2OC)CC1 [Example 1, N-(3′-((6-((1-acryloylpiperidin-4-yl)oxy)-7-methoxyquinazolin-4-yl)amino)-2,4-difluoro-4′-methoxy-[1,1′-biphenyl]-3-yl)acetamide] | ≤ 150 | > 1000
– | ≤ 150 | C=CC(=O)N1CC[C@H](Oc2cc3c(Nc4cc(-c5ccco5)ccc4OC)ncnc3cc2OC)[C@H](F)C1 [Example 154, 1-((3R,4S)-3-fluoro-4-((4-((5-(furan-2-yl)-2-methoxy-phenyl)amino)-7-methoxy-quinazolin-6-yl)oxy)piperidin-1-yl)prop-2-en-1-one] | ≤ 150 | ≤ 150
– | ≤ 150 | C=CC(=O)N1CCC(Oc2cc3c(Nc4cc(-c5cc(C(F)(F)F)ccc5F)ccc4OC)ncnc3cc2OC)CC1 [Example 192, 1-(4-((4-((2′-fluoro-4-methoxy-5′-(trifluoromethyl)-[1,1′-biphenyl]-3-yl)amino)-7-methoxy-quinazolin-6-yl)oxy)piperidin-1-yl)prop-2-en-1-one] | ≤ 150 | ≤ 150
– | ≤ 150 | C=CC(=O)N1CCC(Oc2cc3c(Nc4cc(-c5ccc(F)c(N(C)C)c5)ccc4OC)ncnc3cc2OC)CC1 [Example 229, 1-(4-((4-((3′-(dimethylamino)-4′-fluoro-4-methoxy-[1,1′-biphenyl]-3-yl)amino)-7-methoxy-quinazolin-6-yl)oxy)piperidin-1-yl)prop-2-en-1-one] | ≤ 150 | 150 to 1000
– | ≤ 150 | C=CC(=O)N1CCC(Oc2cc3c(Nc4cc(-c5ccc(F)c(NC(=O)C6CC6)c5)ccc4OC)ncnc3cc2OC)CC1 [Example 4, N-(3′-((6-((1-acryloylpiperidin-4-yl)oxy)-7-methoxy-quinazolin-4-yl)amino)-4-fluoro-4′-methoxy-[1,1'-biphenyl]-3-yl)cyclopropan-carboxamide] | ≤ 150 | > 1000
– | ≤ 150 | C=CC(=O)N1CCC(Oc2cc3c(Nc4cc(-c5ccc(F)c(N)c5F)ccc4OC)ncnc3cc2OC)CC1 [Example 158, 1-(4-((4-((3′-amino-2′,4′-difluoro-4-methoxy-[1,1′-biphenyl]-3-yl)amino)-7-methoxy-quinazolin-6-yl)oxy)piperidin-1-yl)prop-2-en-1-one] | ≤ 150 | ≤ 150
– | ≤ 150 | C=CC(=O)N1CCC(Oc2cc3c(Nc4cc(-c5ccc(F)cc5Cl)ccc4OC)ncnc3cc2OC)CC1 [Example 191, 1-(4-((4-((2′-chloro-4′-fluoro-4-methoxy-[1,1′-biphenyl]-3-yl)amino)-7-methoxy-quinazolin-6-yl)oxy)piperidin-1-yl)prop-2-en-1-one] | ≤ 150 | ≤ 150
– | ≤ 150 | COc1cc2ncnc(Nc3cc(-c4ccco4)ccc3OC)c2cc1NC(=O)/C=C/CN1CCOCC1 [Example 315, (E)-N-(4-((5-(furan-2-yl)-2-methoxyphenyl)amino)-7-methoxyquinazolin-6-yl)-4-morpholinobut-2-enamide] | – | ≤ 150
– | > 1000 | COc1ccc(-c2ccco2)cc1Nc1ncnc2ccc(NC(=O)/C=C/CN(C)C)c(Cl)c12 [Example 321, (E)-N-(5-chloro-4-((5-(furan-2-yl)-2-methoxyphenyl)amino)quinazolin-6-yl)-4-(dimethylamino)but-2-enamide] | – | 150 to 1000
